One block for each molecule: values may come before it.
What was measured:
HeLa S3 cells = assay: Cellular deacetylase assay (FdL, TSA-insensitive signal); format: cell-based, human; conditions: 500 μM compound, 200 μM FdL, 1 μM TSA, 1 hour
Description: FdL (200 μM) is added to growth media and cells incubated for 1-3 hours to allow FdL to enter the cells and the lysine-deacetylated product (deAc-FdL) to accumulate intracellularly. Cells are lysed with detergent in the presence of 1 μM TSA, 1 mM nicotinamide. Addition of the non-cell-permeable Developer (BIOMOL) releases a fluorophor, specifically from deAc-FdL. b, SIRT1 activating polyphenols can stimulate TSA-insensitive, FdL deacetylation by HeLa S3 cells. Cells were grown adherently in DMEM/10% FCS and treated for 1 hour with 200 μM FdL, 1 μM TSA and either vehicle (0.5% final DMSO, Control) or 500 μM of the indicated compound. Intracellular accumulation of deAc-FdL was then determined as described briefly in a. […] Lysates were prepared and analyzed as above. […]
Themed compound libraries (BIOMOL) were used for primary and secondary screening. […] In vitro fluorescence assay results were read in white ½-volume 96-well microplates (Coming Costar 3693) with a CytoFluor™. II fluorescence plate reader (PerSeptive Biosystems, Ex. 360 nm, Em. 460 nm, gain=85). HeLa cells were grown and the cellular deacetylation assays were performed and read, as above, but in full-volume 96-well microplates (Coming Costar 3595). […]

S. cerevisiae = assay: Yeast replicative lifespan; format: cell-based
Description: Average lifespan for wild type, 22.9 generations, quercetin, 23.4; piceatannol. […]
All yeast strains were grown at 30° C. in complete yeast extract/bactopeptone, 2.0% (w/v) glucose (YPD) medium except where stated otherwise. Calorie restriction was induced in 0.5% glucose. Synthetic complete (SC) medium consisted of 1.67% yeast nitrogen base, 2% glucose, 40 mg/litre each of auxotrophic markers. SIR2 was integrated in extra copy and disrupted as described^5. Other strains are described elsewhere^26. For cellular deacetylation assays, HeLa S3 cells were used. U20S osteosarcoma and human embryonic kidney (HEK 293) cells were cultured adherently in Dulbecco's Modified Eagle's Medium (DMEM) containing 10% fetal calf serum (FCS) with 1.0% glutamine and 1.0% penecillin/streptomycin. HEK 293 overexpressing dominant negative SIRT1 H363Y was a gift of R. Frye (U. Pittsburgh).
Lifespan measurements were performed using PSY316AT MATα as previously described^35. All compounds for lifespan analyses were dissolved in 95% ethanol and plates were dried and used within 24 hours. Prior to lifespan analysis, cells were pre-incubated on their respective media for at least 15 hours. Following transfer to a new plate, cells were equilibrated on the medium for a minimum of 4 hours prior to micro-manipulating them. At least 30 cells were examined per experiment and each experiment was performed at least twice. Statistical significance of lifespan differences was determined using the Wilcoxon rank sum test. Differences are stated to be significant when the confidence is higher than 95%.

[1] = biological target: T1, SIRT1 deacetylase (BIOMOL) (Homo sapiens, UniProt Q96EB6); assay: High-throughput SIRT1 screening protocol (ICCB library); format: biochemical; conditions: positive controls; 200 μM NAD+, 5 μM Fluor de Lys-SIRT1; resveratrol 50 μM
T1 construct: purchased BIOMOL
T1 sequence (Q96EB6 1-747): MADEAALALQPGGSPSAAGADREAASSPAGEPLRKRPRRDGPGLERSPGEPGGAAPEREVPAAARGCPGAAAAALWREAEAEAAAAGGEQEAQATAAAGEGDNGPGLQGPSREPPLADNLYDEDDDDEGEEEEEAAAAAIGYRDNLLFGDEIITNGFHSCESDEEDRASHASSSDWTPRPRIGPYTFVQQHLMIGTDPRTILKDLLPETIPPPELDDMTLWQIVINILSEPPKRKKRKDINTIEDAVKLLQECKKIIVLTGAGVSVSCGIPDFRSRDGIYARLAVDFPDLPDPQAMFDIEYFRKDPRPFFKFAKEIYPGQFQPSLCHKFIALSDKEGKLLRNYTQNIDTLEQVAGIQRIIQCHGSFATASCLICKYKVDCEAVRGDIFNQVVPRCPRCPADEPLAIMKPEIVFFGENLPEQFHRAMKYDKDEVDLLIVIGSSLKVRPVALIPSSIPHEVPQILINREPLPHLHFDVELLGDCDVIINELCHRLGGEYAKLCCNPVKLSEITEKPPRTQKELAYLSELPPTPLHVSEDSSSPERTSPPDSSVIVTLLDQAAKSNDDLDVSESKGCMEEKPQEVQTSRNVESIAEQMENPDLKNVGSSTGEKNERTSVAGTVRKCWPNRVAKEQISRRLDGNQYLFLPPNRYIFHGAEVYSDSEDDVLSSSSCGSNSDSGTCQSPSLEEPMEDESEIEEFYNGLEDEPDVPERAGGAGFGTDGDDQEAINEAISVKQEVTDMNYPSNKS
Description: The reaction mixture contains (final): 0.5 units/reaction SIRT1 deacetylase (BIOMOL); 200 μM NAD^+; 5 μM Fluor de Lys-SIRT1 substrate (BIOMOL); buffer (25 mM Tris/Cl, pH 8.0, 137 mM NaCl, 2.7 mM KCl, 1 mM MgCl2, and 1 mg/ml BSA). In addition, a reaction mixture containing no enzyme was made so that each well receiving compound has a corresponding “no enzyme control” well. Reactions were performed in black 384 well plates (NUNC) in a final volume of 25 μl/well.
The reactions were started by combining enzyme and substrate in a reaction mixture immediately prior to aliquoting in plates (or substrate only for “no enzyme control” plates). Mixture were aliquoted to plates using Biotek μfill (Biotek Instruments). Control mixtures were manually added to designated wells. A library compound was added at a desired concentration by pin transfer to both “with enzyme” and “no enzyme” plates. Compounds were added in at least triplicate (with enzyme reaction in duplicate and no enzyme controls) at a final concentration of roughly 50 μM. The plates were incubated at 37° C for 30-60 minutes. Then 25 μl of 1× Developer II (BIOMOL) plus 2 mM nicotinamide were added to all wells to stop the reactions. The reactions were left for at least 30 minutes at 37° C. for the signal to develop. The plates were read in a microplate-reading fluorometer capable of excitation at a wavelength in the range of 350-380 nm and detection of emitted light in the range of 440-460 nm. A read time of 0.1 sec per well was used.

C. elegans = C. elegans lifespan; format: in vivo; conditions: N2 worms, E. coli as food
Description: Thus, the presence of resveratrol in the growth media of C. elegans extends their lifespan.
Bristol N2 (Caenorhabditis Genetics Center) was used as the wild-type strain. The sir-2.1 mutant strain was generated by backcrossing VC199 (sir-2.1(ok434)) to N2 four times. Cultures were grown on standard NGM media and maintained on E. coli strain OP50. For the lifespan assays, synchronized animals were transferred to treatment plates as young adults (2 d after hatching, day 0 of assay), and were transferred to fresh treatment plates every 2 days for the first 6 to 8 days of the assay. […] For some lifespan trials, heat-killed OP50 were used as a food source. OP50 cultures were heated to 65° C. for 30 minutes, then pelleted and resuspended in 1/10 volume in S Basal supplemented with 10 mM MgSO4. In all assays, worms were monitored daily for mortality by gently probing with a platinum pick. Assays were performed at 24° C. To assay worm feeding rates, worms at the indicated stages were placed on treatment plates (no FUdR) for 4-5 hours, then videoed for 1 minute using a Pixelink PL-662 camera. The frame rate was slowed and the pumping rate of the pharynx was counted. To assay fecundity, gravid hermaphrodites (5 per plate, raised from synchronized L1s on normal or treatment plates) were allowed to lay eggs on their respective media for 5 hours, and the total number of eggs was counted.

recombinant human SIRT1 = biological target: T2, recombinant human SIRT1 (Homo sapiens, UniProt Q96EB6); assay: SIRT1 fluorescent deacetylation assay (p53-382 acetylated peptide); format: biochemical; conditions: 25 μM NAD+, 25 μM p53-382 acetylated peptide, compounds at 100 μM
T2 sequence (Q96EB6 1-747): T1 sequence (Q96EB6 1-747)
Text: Lines represent non-linear least-squares fits to the Michaelis-Menten equation. […] Lines represent non-linear least-squares fits to the Michaelis-Menten equation. […] Error bars are standard errors of the mean.
To identify compounds that modulate SIRT1 activity, a number of small molecule libraries were screened using a fluorescent deacetylation assay in 96-well plates^26. The substrate used in the assay was a fluorogenic peptide based on the sequence encompassing the p53-K382 acetylation site, a known target of SIRT1 in vivo^20,21,27. […] The small molecule libraries included analogues of nicotinamide, ε-acetyl lysine, NAD^+, nucleotides, nucleotide analogues and purinergic ligands.
His6-tagged recombinant SIRT1 and GST-tagged recombinant Sir2 were prepared as previously described^26. From 0.1 to 1 μg of SIRT1 and 1.5 μg of Sir2 were used per deacetylation assay (in 50 μl total reaction) as previously described^26.
Themed compound libraries (BIOMOL) were used for primary and secondary screening. Most polyphenol compounds were dissolved at 10 mM in dimethylsulfoxide (DMSO) on the day of the assay. For water soluble compounds and negative controls, 1% v/v DMSO was added to the assay. […] Unless otherwise indicated all initial rate measurements were means of three or more replicates, obtained with single incubation times, at which point 5% or less of the substrate initially present had been deacetylated. Calculation of net fluorescence increases included subtraction of a blank value, which in the case of Sir2 was obtained by omitting the enzyme from the reaction and in the case of SIRT1 by adding an inhibitor (200 μM suramin or 1 mM nicotinamide) to the reaction prior to the acetylated substrate. […] All error bars represent the standard error of the mean.

[2] = system: Experimental autoimmune encephalomyelitis (EAE) in SJL/J mice; conditions: FK506 5 mg/kg/day
[3] = system: thoracic spinal cord of EAE SJL/J mice; assay: EAE spinal cord white matter damage; format: in vivo, mouse; conditions: FK506 5 mg/kg, significant
Text: At day 40 post-immunization, mice from each group are sacrificed with an overdose of ketamine/xylazine. Spinal cords are dissected, fixed in 10% buffered formalin, and embedded in paraffin. Five micron thick sections are stained with Hematoxylin and Eosin (H&E) and Luxol Fast Blue (LFB) to assess myelin loss. Bielshowesky's silver impregnation is used to evaluate axonal integrity. To asses the amount of axonal loss, paraffin sections are exposed to monoclonal antibodies against mouse non-phosphorylated neurofilament H (Clone SMI-32, Stemberger Monoclonals, Baltimore, USA) and monoclonal antibodies against APP (Clone 22C11, Chemicon). SMI-32 is detected with a Cy3-labeled antibody and visualized by fluorescence microscopy. Anti-APP antibodies are detected by incubation with ColonoPAP, and APP-positive axons are visualized with 3,3′-diaminobenzidine (DAB).
The percentage of the spinal cord showing damage was determined in the cervical, thoracic and lumbar cord. At each level, regions in the 1) dorsal columns and 2) the lateral and ventral white matter tracts containing damaged fibers was circumscribed on photomontages (final magnification ×100) of the entire spinal cord. Damaged areas in each of the two regions were measured using a SummaSketch III (Summagraphics, Seymour, Conn.) digitizing tablet and BIOQUANT Classic 95 software (R&M Biometrics, Nashville, Tenn.). Measurements were also be made of the total area (damaged and nondamaged) of the 1) dorsal columns and 2) the lateral and ventral columns. For each section (one section per animal), the cumulative percent lesion areas were calculated for each region (dorsal column, lateral and ventral columns).

[4] = biological target: p53-382 acetylated peptide (human) (UniProt P04637)

Molecule: O=C(/C=C/c1ccc(O)c(O)c1)c1ccc(O)cc1O [butein, 3,4,2′,4′-Tetrahydroxychalcone]
TSA-insensitive cellular deacetylation signal (HeLa S3 cells): no effect on the cellular signal | increase of average lifespan (S. cerevisiae; 10 μM): 31% | maximum lifespan (in words) (S. cerevisiae; 10 μM): significantly increased maximum lifespan | Average lifespan (S. cerevisiae; 10 μM compound, 2% glucose medium, wild type untreated 22.9): 35.5 generations

Molecule: COc1ccc(/C=C/c2cc(O)cc(O)c2)cc1 [BML-233, 3,5-Dihydroxy-4′-methoxy-trans-stilbene]
activated SIRT1 [1]: 2.1 fold | % change in C. elegans lifespan relative to untreated organisms (C. elegans; (10)): 70% | % change in C. elegans lifespan relative to untreated organisms (C. elegans; (500)): 50% | SIRT1 stimulating activity (in words) (recombinant human SIRT1): strong activator of sirtuins

Molecule: C=CC[C@@H]1/C=C(\C)C[C@H](C)C[C@H](OC)[C@H]2O[C@@](O)(C(=O)C(=O)N3CCCC[C@H]3C(=O)O[C@H](/C(C)=C/[C@@H]3CC[C@@H](O)[C@H](OC)C3)[C@H](C)[C@@H](O)CC1=O)[C@H](C)C[C@@H]2OC [FK506]
Mean EAE Score - Last 10 Days ([2]; vehicle 23.00): 7.75 | Mean total EAE score ([2]; vehicle 72.38): 25.38 | reduction of extent of damage in dorsal, lateral and ventral white matter [3]: over 90%

Km for the acetylated peptide (initial deacetylation rate, fluorescence) [4]: 64 µM
Molecule: His6-tagged recombinant SIRT1 (enzyme)
